Experimental data as given in patent publication US7132252B2, “Methods for detecting the interaction of compounds with cytochrome P450 using optical molecular sensors” (Invitrogen Corporation, priority 1998, dated 2006).
Values joined by “and” are separate entries in the source; they are usually repeats but may differ in a detail not shown here. Equal values may be shown once.

target: CYP3A4 (Homo sapiens, UniProt P08684); test: Kinetic properties of fluorogenic substrates with CYP 3A4; format: biochemical; details: not given
Sequence (P08684 whole entry): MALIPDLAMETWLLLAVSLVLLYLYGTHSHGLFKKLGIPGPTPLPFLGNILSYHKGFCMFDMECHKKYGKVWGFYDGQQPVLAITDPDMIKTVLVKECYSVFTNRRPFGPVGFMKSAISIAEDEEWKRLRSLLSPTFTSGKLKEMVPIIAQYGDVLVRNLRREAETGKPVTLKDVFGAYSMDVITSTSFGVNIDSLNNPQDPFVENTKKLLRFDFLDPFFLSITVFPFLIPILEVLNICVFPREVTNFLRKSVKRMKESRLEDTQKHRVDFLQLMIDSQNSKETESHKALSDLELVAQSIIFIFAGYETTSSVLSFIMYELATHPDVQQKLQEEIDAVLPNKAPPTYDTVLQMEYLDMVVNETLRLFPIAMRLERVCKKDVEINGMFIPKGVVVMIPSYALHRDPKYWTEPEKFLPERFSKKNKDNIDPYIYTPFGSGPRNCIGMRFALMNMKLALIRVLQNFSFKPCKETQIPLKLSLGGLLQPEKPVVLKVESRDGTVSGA
From the text: For further understanding these terms in the context of this invention, attention is directed to FIG. 4 and the analysis of FIG. 4.
(§1) (respectively, MFC and MR).

| SMILES | type of kinetics |
| --- | --- |
| O=c1cc(C(F)(F)F)c2ccc(OCc3ccccc3)cc2o1 [BFC, 7-Benzyloxy-4-trifluoromethylcoumarin, reference compound] | linear |
| CCOCOc1ccc2nc3ccc(=O)cc-3oc2c1 [EOMR] | Michaelis-Menten |

same assay, conditions: turnover rate at 1.25 uM substrate; — = too low to quantify

| SMILES | v (1.25 uM) [min⁻¹] |
| --- | --- |
| O=c1cc(C(F)(F)F)c2ccc(OCc3ccccc3)cc2o1 [BFC, 7-Benzyloxy-4-trifluoromethylcoumarin, reference compound] | 0.04 |
| CC1(C)C2=C(Cl)C(=O)C(Cl)=CC2=Nc2ccc(OCOCc3ccccc3)cc21 [BOM-DDAO] | 0.4402 |
| O=C(OCc1ccccc1)c1c2oc3cc(OCc4ccccc4)ccc3nc-2ccc1=O [BRCBE] | 0.1992 |
| CCOCOc1ccc2nc3ccc(=O)cc-3oc2c1 [EOMR] | 0.03 |
| COCOc1ccc2nc3ccc(=O)cc-3oc2c1 [MOMR] | 0.0083 |
| CCCCCCCCOCOc1ccc2cc(C#N)c(=O)oc2c1 [OOMCC] | 0.2274 |

same assay, conditions: turnover rate at 10 uM substrate; — = too low to quantify

| SMILES | v (10 uM) [min⁻¹] |
| --- | --- |
| O=c1cc(C(F)(F)F)c2ccc(OCc3ccccc3)cc2o1 [BFC, 7-Benzyloxy-4-trifluoromethylcoumarin, reference compound] | 0.81 |
| CC1(C)C2=C(Cl)C(=O)C(Cl)=CC2=Nc2ccc(OCOCc3ccccc3)cc21 [BOM-DDAO] | 4.2041 |
| O=C(OCc1ccccc1)c1c2oc3cc(OCc4ccccc4)ccc3nc-2ccc1=O [BRCBE] | 0.6241 |
| CCOCOc1ccc2nc3ccc(=O)cc-3oc2c1 [EOMR] | 0.10 |
| COCOc1ccc2nc3ccc(=O)cc-3oc2c1 [MOMR] | 0.0338 |
| CCCCCCCCOCOc1ccc2cc(C#N)c(=O)oc2c1 [OOMCC] | 0.961 |

target: CYP2C19 (Homo sapiens, UniProt P33261); test: Kinetic properties of fluorogenic substrates with CYP 2C19; format: biochemical; details: not given
Sequence (P33261 whole entry): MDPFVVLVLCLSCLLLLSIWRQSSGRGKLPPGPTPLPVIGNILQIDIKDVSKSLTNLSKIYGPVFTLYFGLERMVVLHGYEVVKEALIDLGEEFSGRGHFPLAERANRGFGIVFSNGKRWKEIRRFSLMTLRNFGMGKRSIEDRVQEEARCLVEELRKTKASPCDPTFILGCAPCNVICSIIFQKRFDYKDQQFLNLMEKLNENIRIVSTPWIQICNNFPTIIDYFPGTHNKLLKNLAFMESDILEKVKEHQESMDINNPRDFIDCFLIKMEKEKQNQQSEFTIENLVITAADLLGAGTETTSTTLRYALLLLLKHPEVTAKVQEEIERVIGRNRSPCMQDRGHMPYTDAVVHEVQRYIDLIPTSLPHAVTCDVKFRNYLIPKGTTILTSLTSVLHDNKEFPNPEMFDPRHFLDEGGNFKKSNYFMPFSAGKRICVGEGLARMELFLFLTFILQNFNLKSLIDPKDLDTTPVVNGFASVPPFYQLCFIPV

| SMILES | type of kinetics |
| --- | --- |
| COc1ccc2cc(C#N)c(=O)oc2c1 [3CMC, 3-cyano-7-methoxycoumarin, reference compound] | linear |
| N#Cc1cc2ccc(OCc3ccccc3)cc2oc1=O [BCC, 7-Benzyloxy-3-cyanocoumarin, reference compound] | Michaelis-Menten |
| COc1ccc(COc2ccc3nc4ccc(=O)cc-4oc3c2)cc1 [MOBR, Paramethoxybenzylresorufin] | not MMK |

same assay, conditions: turnover rate at 1.25 uM substrate; — = too low to quantify

| SMILES | v (1.25 uM) [min⁻¹] |
| --- | --- |
| COc1ccc2cc(C#N)c(=O)oc2c1 [3CMC, 3-cyano-7-methoxycoumarin, reference compound] | 0.01 |
| N#Cc1cc2ccc(OCc3ccccc3)cc2oc1=O [BCC, 7-Benzyloxy-3-cyanocoumarin, reference compound] | 0.02 |
| COc1ccc(COc2ccc3nc4ccc(=O)cc-4oc3c2)cc1 [MOBR, Paramethoxybenzylresorufin] | 1.26 |
| COCOc1ccc2nc3ccc(=O)cc-3oc2c1 [MOMR] | 0.06 |
| CCCCCCCCOCOc1ccc2cc(C#N)c(=O)oc2c1 [OOMCC] | 0.179 |

same assay, conditions: turnover rate at 10 uM substrate; — = too low to quantify

| SMILES | v (10 uM) [min⁻¹] |
| --- | --- |
| COc1ccc2cc(C#N)c(=O)oc2c1 [3CMC, 3-cyano-7-methoxycoumarin, reference compound] | 0.07 |
| N#Cc1cc2ccc(OCc3ccccc3)cc2oc1=O [BCC, 7-Benzyloxy-3-cyanocoumarin, reference compound] | 0.06 |
| COc1ccc(COc2ccc3nc4ccc(=O)cc-4oc3c2)cc1 [MOBR, Paramethoxybenzylresorufin] | 0.69 |
| COCOc1ccc2nc3ccc(=O)cc-3oc2c1 [MOMR] | 0.062 |
| CCCCCCCCOCOc1ccc2cc(C#N)c(=O)oc2c1 [OOMCC] | 1.043 |

target: CYP2C9 (Homo sapiens, UniProt P11712); test: Kinetic properties of fluorogenic substrates with CYP 2C9; format: biochemical; details: not given
Sequence (P11712 whole entry): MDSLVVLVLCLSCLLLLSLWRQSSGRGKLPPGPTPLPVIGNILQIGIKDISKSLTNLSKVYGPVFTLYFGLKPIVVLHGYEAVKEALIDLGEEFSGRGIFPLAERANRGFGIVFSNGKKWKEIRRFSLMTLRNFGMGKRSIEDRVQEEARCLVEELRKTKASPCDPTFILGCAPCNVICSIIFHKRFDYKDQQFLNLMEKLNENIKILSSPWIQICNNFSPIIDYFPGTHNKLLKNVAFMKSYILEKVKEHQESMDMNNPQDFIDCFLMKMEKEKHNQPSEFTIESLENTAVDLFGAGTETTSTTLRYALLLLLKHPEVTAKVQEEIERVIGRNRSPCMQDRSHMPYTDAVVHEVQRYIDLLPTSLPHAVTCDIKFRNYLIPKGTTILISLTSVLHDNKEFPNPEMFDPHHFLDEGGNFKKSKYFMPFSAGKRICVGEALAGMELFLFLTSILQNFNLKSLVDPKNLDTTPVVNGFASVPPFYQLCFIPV

| SMILES | type of kinetics |
| --- | --- |
| COc1ccc2cc(C#N)c(=O)oc2c1 [3CMC, 3-cyano-7-methoxycoumarin, reference compound] | linear |
| COc1ccc(COc2ccc3nc4ccc(=O)cc-4oc3c2)cc1 [MOBR, Paramethoxybenzylresorufin] | Michaelis-Menten |

same assay, conditions: turnover rate at 1.25 uM substrate; — = too low to quantify

| SMILES | v (1.25 uM) [min⁻¹] |
| --- | --- |
| COc1ccc2cc(C#N)c(=O)oc2c1 [3CMC, 3-cyano-7-methoxycoumarin, reference compound] | 0.00 |
| N#Cc1cc2ccc(OCc3ccccc3)cc2oc1=O [BCC, 7-Benzyloxy-3-cyanocoumarin, reference compound] | 0.00 |
| COc1ccc(COc2ccc3nc4ccc(=O)cc-4oc3c2)cc1 [MOBR, Paramethoxybenzylresorufin] | 0.02 |

same assay, conditions: turnover rate at 10 uM substrate; — = too low to quantify

| SMILES | v (10 uM) [min⁻¹] |
| --- | --- |
| COc1ccc2cc(C#N)c(=O)oc2c1 [3CMC, 3-cyano-7-methoxycoumarin, reference compound] | 0.04 |
| N#Cc1cc2ccc(OCc3ccccc3)cc2oc1=O [BCC, 7-Benzyloxy-3-cyanocoumarin, reference compound] | 0.00 |
| COc1ccc(COc2ccc3nc4ccc(=O)cc-4oc3c2)cc1 [MOBR, Paramethoxybenzylresorufin] | 0.02 |

target: T1, CYP 2B6 (Homo sapiens, UniProt P20813); test: Kinetic properties of fluorogenic substrates with CYP 2B6; format: biochemical; details: not given
T1 sequence (P20813 1-491): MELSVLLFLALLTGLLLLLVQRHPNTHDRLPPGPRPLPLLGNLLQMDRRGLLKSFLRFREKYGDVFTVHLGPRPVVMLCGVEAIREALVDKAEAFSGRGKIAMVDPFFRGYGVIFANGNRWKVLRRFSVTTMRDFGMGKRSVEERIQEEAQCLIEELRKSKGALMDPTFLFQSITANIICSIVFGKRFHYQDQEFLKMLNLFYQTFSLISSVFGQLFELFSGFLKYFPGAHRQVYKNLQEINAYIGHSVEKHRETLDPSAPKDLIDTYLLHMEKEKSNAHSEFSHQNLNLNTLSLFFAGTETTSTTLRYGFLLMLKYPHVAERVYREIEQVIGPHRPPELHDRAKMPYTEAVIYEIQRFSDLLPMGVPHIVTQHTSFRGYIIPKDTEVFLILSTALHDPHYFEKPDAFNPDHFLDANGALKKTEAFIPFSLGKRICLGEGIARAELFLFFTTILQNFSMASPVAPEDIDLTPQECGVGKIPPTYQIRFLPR

| SMILES | type of kinetics |
| --- | --- |
| N#Cc1cc2ccc(OCc3ccccc3)cc2oc1=O [BCC, 7-Benzyloxy-3-cyanocoumarin, reference compound] | Michaelis-Menten |
| COc1ccc(COc2ccc3nc4ccc(=O)cc-4oc3c2)cc1 [MOBR, Paramethoxybenzylresorufin] | Michaelis-Menten |

same assay, conditions: human, CYP 2B6 isozyme; — = too low to quantify

| SMILES | Km [µM] |
| --- | --- |
| N#Cc1cc2ccc(OCc3ccccc3)cc2oc1=O [BCC, 7-Benzyloxy-3-cyanocoumarin, reference compound] | 1.3 |
| COc1ccc(COc2ccc3nc4ccc(=O)cc-4oc3c2)cc1 [MOBR, Paramethoxybenzylresorufin] | 0.01 |

same assay, conditions: turnover rate at 1.25 uM substrate; — = too low to quantify

| SMILES | v (1.25 uM) [min⁻¹] |
| --- | --- |
| N#Cc1cc2ccc(OCc3ccccc3)cc2oc1=O [BCC, 7-Benzyloxy-3-cyanocoumarin, reference compound] | 0.04 |
| COc1ccc(COc2ccc3nc4ccc(=O)cc-4oc3c2)cc1 [MOBR, Paramethoxybenzylresorufin] | 0.08 |

same assay, conditions: turnover rate at 10 uM substrate; — = too low to quantify

| SMILES | v (10 uM) [min⁻¹] |
| --- | --- |
| N#Cc1cc2ccc(OCc3ccccc3)cc2oc1=O [BCC, 7-Benzyloxy-3-cyanocoumarin, reference compound] | 0.07 |
| COc1ccc(COc2ccc3nc4ccc(=O)cc-4oc3c2)cc1 [MOBR, Paramethoxybenzylresorufin] | 0.10 |

same assay, conditions: — = too low to quantify

| SMILES | kcat [s⁻¹] |
| --- | --- |
| N#Cc1cc2ccc(OCc3ccccc3)cc2oc1=O [BCC, 7-Benzyloxy-3-cyanocoumarin, reference compound] | 0.0017 |
| COc1ccc(COc2ccc3nc4ccc(=O)cc-4oc3c2)cc1 [MOBR, Paramethoxybenzylresorufin] | 0.0067 |

target: CYP2D6 (Homo sapiens, UniProt P10635); test: Kinetic properties of fluorogenic substrates with CYP 2D6; format: biochemical; details: not given
Sequence (P10635 whole entry): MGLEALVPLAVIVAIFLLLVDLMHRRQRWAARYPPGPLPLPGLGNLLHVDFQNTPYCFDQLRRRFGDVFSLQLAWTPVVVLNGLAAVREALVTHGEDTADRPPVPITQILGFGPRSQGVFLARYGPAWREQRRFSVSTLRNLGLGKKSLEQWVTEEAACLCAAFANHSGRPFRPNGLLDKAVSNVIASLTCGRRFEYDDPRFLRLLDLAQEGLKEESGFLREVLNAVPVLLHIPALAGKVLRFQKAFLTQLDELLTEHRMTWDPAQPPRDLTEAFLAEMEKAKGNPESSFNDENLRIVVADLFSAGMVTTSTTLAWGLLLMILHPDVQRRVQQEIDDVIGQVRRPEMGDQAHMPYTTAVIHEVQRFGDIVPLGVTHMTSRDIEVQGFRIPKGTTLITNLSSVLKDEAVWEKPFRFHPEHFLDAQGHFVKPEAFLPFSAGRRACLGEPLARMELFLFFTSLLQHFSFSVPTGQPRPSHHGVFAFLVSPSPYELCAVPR
From the text: as §1

| SMILES | type of kinetics |
| --- | --- |
| COc1ccc(COc2ccc3nc4ccc(=O)cc-4oc3c2)cc1 [MOBR, Paramethoxybenzylresorufin] | Michaelis-Menten |

same assay, conditions: turnover rate at 1.25 uM substrate; — = too low to quantify

| SMILES | v (1.25 uM) |
| --- | --- |
| COc1ccc(COc2ccc3nc4ccc(=O)cc-4oc3c2)cc1 [MOBR, Paramethoxybenzylresorufin] | 0.0185 min⁻¹ and 0.02 min⁻¹ |
| COCOc1ccc2nc3ccc(=O)cc-3oc2c1 [MOMR] | 0.03396 min⁻¹ |

same assay, conditions: turnover rate at 10 uM substrate; — = too low to quantify

| SMILES | v (10 uM) |
| --- | --- |
| COc1ccc(COc2ccc3nc4ccc(=O)cc-4oc3c2)cc1 [MOBR, Paramethoxybenzylresorufin] | 0.0409 min⁻¹ and 0.04 min⁻¹ |
| COCOc1ccc2nc3ccc(=O)cc-3oc2c1 [MOMR] | 0.2146 min⁻¹ |
